# In ChEMBL document CHEMBL1139921, “Synthesis and biological activity of 2-alkylbenzimidazoles bearing a N-phenylpyrrole moiety as novel angiotensin II AT1 receptor antagonists” (Bioorg Med Chem Lett, 2007):
# Activity calls are given as the source filed them. The rule behind the calls is not given here.
# Target: T1, Type-1 angiotensin II receptor (Oryctolagus cuniculus) (UniProt P34976)
# T1 sequence (whole entry): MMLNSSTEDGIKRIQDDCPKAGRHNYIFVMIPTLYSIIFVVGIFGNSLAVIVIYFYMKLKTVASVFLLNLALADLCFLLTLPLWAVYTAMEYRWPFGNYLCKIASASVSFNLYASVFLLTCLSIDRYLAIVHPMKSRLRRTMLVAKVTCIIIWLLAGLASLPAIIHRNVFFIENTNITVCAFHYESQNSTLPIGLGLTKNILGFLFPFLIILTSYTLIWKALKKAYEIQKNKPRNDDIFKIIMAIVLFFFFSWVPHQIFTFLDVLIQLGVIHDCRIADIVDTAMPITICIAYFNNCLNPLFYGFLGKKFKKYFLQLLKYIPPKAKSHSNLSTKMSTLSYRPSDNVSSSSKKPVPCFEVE
# Assay: Antagonist activity at AT1 receptor assessed inhibition of histamine-induced contraction of rabbit thoracic aortic rings
# Format: functional
# Settings: not given
row,Activity,Structure (SMILES)
1,inactive,CCCCc1nc2cccc(C(=O)O)c2n1Cc1ccc(-n2cccc2-c2nnn[nH]2)cc1
2,inactive,CCCCc1nc2cccc(C(=O)OC)c2n1Cc1ccc(-n2cccc2-c2nnn[nH]2)cc1

# System: Rattus norvegicus
# Assay: Reduction of mean arterial pressure in spontaneously hypertensive rat at 1 mg/kg, po
# Format: functional, organism-based
# Parameters: dose 1 mg/kg
# Settings: Artery
row,Structure (SMILES),Activity
1,CCCCc1nc2cccc(C(=O)O)c2n1Cc1ccc(-n2cccc2-c2nnn[nH]2)cc1,Active
2,CCCCc1nc2cccc(C(=O)OC)c2n1Cc1ccc(-n2cccc2-c2nnn[nH]2)cc1,Active

# System: Rattus norvegicus
# Assay: Decrease in mean arterial pressure in po dosed spontaneously hypertensive rat
# Format: functional, organism-based
# Settings: Artery
row,Structure (SMILES),Activity
1,CCCCc1nc2cccc(C(=O)O)c2n1Cc1ccc(-n2cccc2-c2nnn[nH]2)cc1,Dose-dependent effect
2,CCCCc1nc2cccc(C(=O)OC)c2n1Cc1ccc(-n2cccc2-c2nnn[nH]2)cc1,Dose-dependent effect

# Target: T2, Type-1 angiotensin II receptor (Oryctolagus cuniculus, UniProt P34976)
# T2 sequence (P34976 whole entry): T1 sequence (whole entry)
# Assay: Antagonist activity at AT1 receptor assessed inhibition of angiotensin-2-induced contraction of rabbit thoracic aortic rings
# Format: functional
# Settings: read-out: pA2 (converted)
row,Structure (SMILES),Kb
1,Cc1nc2cccc(C(=O)O)c2n1Cc1ccc(-n2cccc2C(=O)O)cc1,1260 nM
2,CCc1nc2cccc(C(=O)OC)c2n1Cc1ccc(-n2cccc2-c2nnn[nH]2)cc1,31.6 nM
3,CCc1nc2cccc(C(=O)O)c2n1Cc1ccc(-n2cccc2C(=O)O)cc1,316 nM
4,CCCc1nc2cccc(C(=O)OC)c2n1Cc1ccc(-n2cccc2-c2nnn[nH]2)cc1,12.6 nM
5,COC(=O)c1cccc2nc(C)n(Cc3ccc(-n4cccc4-c4nnn[nH]4)cc3)c12,100 nM
6,CCCCc1nc2cccc(C(=O)O)c2n1Cc1ccc(-n2cccc2C(=O)O)cc1,10 nM
7,CCCc1nc2cccc(C(=O)OCC)c2n1Cc1ccc(-n2cccc2-c2nnn[nH]2)cc1,79.4 nM
8,CCCc1nc2cccc(C(=O)O)c2n1Cc1ccc(-n2cccc2C(=O)O)cc1,100 nM

# The remaining lines, values ahead:
row,Kb,Structure (SMILES)
1,3.16 nM,CCCCc1nc2cccc(C(=O)O)c2n1Cc1ccc(-n2cccc2-c2nnn[nH]2)cc1
2,3.98 nM,CCCCc1nc2cccc(C(=O)OC)c2n1Cc1ccc(-n2cccc2-c2nnn[nH]2)cc1
3,6.31 nM,CCCc1nc2cccc(C(=O)O)c2n1Cc1ccc(-n2cccc2-c2nnn[nH]2)cc1
4,15.8 nM,CCCCc1nc2cccc(C(=O)OCC)c2n1Cc1ccc(-n2cccc2-c2nnn[nH]2)cc1

# System: Rattus norvegicus
# Assay: Inhibition of angiotensin-2-induced pressor response in normotensive rat at 1 mg/kg, po
# Format: functional, organism-based
# Parameters: dose 1 mg/kg
# Settings: not given
row,Structure (SMILES),Activity
1,CCCCc1nc2cccc(C(=O)O)c2n1Cc1ccc(-n2cccc2-c2nnn[nH]2)cc1,Active
2,CCCCc1nc2cccc(C(=O)OC)c2n1Cc1ccc(-n2cccc2-c2nnn[nH]2)cc1,Active

# Target: T1, Type-1 angiotensin II receptor (Oryctolagus cuniculus)
# Assay: Antagonist activity at AT1 receptor assessed inhibition of norepinephrine-induced contraction of rabbit thoracic aortic rings
# Format: functional
# Settings: not given
row,Activity,Structure (SMILES)
1,inactive,CCCCc1nc2cccc(C(=O)O)c2n1Cc1ccc(-n2cccc2-c2nnn[nH]2)cc1
2,inactive,CCCCc1nc2cccc(C(=O)OC)c2n1Cc1ccc(-n2cccc2-c2nnn[nH]2)cc1

# Target: T3, Type-1 angiotensin II receptor (Bos taurus, UniProt P25104)
# T3 sequence (P25104 whole entry): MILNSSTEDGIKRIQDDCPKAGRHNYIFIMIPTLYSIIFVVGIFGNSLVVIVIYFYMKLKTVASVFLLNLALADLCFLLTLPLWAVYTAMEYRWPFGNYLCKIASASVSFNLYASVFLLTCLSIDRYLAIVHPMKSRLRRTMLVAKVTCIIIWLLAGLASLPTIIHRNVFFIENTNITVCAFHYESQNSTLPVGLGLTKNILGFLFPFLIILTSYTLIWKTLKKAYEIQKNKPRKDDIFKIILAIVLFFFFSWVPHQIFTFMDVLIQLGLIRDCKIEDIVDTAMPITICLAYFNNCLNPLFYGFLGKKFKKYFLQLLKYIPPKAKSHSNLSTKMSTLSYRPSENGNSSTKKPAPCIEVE
# Assay: Displacement of [125I]angiotensin-2 from bovine adrenal cortex AT1 receptor
# Format: tissue-based
# Settings: not given
row,Structure (SMILES),IC50
1,Cc1nc2cccc(C(=O)O)c2n1Cc1ccc(-n2cccc2C(=O)O)cc1,250 nM
2,CCc1nc2cccc(C(=O)OC)c2n1Cc1ccc(-n2cccc2-c2nnn[nH]2)cc1,140 nM
3,CCc1nc2cccc(C(=O)O)c2n1Cc1ccc(-n2cccc2C(=O)O)cc1,160 nM
4,CCCc1nc2cccc(C(=O)OC)c2n1Cc1ccc(-n2cccc2-c2nnn[nH]2)cc1,32 nM
5,COC(=O)c1cccc2nc(C)n(Cc3ccc(-n4cccc4-c4nnn[nH]4)cc3)c12,200 nM
6,CCCCc1nc2cccc(C(=O)O)c2n1Cc1ccc(-n2cccc2C(=O)O)cc1,33 nM
7,CCCc1nc2cccc(C(=O)OCC)c2n1Cc1ccc(-n2cccc2-c2nnn[nH]2)cc1,41 nM
8,CCCc1nc2cccc(C(=O)O)c2n1Cc1ccc(-n2cccc2C(=O)O)cc1,92 nM

# The next compounds have a lower IC50 than those just listed; values first:
row,IC50,Structure (SMILES)
1,6.9 nM,CCCCc1nc2cccc(C(=O)O)c2n1Cc1ccc(-n2cccc2-c2nnn[nH]2)cc1
2,9.8 nM,CCCCc1nc2cccc(C(=O)OC)c2n1Cc1ccc(-n2cccc2-c2nnn[nH]2)cc1
3,16 nM,CCCc1nc2cccc(C(=O)O)c2n1Cc1ccc(-n2cccc2-c2nnn[nH]2)cc1
4,19 nM,CCCCc1nc2cccc(C(=O)OCC)c2n1Cc1ccc(-n2cccc2-c2nnn[nH]2)cc1

# Target: T1, Type-1 angiotensin II receptor (Oryctolagus cuniculus)
# Assay: Antagonist activity at AT1 receptor assessed inhibition of KCl-induced contraction of rabbit thoracic aortic rings
# Format: functional
# Settings: not given
row,Activity,Structure (SMILES)
1,inactive,CCCCc1nc2cccc(C(=O)O)c2n1Cc1ccc(-n2cccc2-c2nnn[nH]2)cc1
2,inactive,CCCCc1nc2cccc(C(=O)OC)c2n1Cc1ccc(-n2cccc2-c2nnn[nH]2)cc1
